Our source for the IC50 values is BindingDB's records for patent WO2025051920 (Sanofi-Aventis Deutschland, 2025).

In general, IC50 refers to the midpoint of a concentration-inhibition curve. A lower IC50 goes with greater potency.

Molecules are shown by their SMILES. Bridge positions count the residues as written; N and C are the ends. Square brackets hold non-standard residues; d marks the D form. Peptide text beside a SMILES is read from it. 2Nal = N[C@@H](Cc1ccc2ccccc2c1)C(=O)O; Thp = NC1(C(=O)O)CCOCC1

Assay [1] has as its target T1, Interleukin-23 subunit alpha/receptor (UniProt Q9NPF7+Q5VWK5).
T1 sequence (Q9NPF7 whole entry): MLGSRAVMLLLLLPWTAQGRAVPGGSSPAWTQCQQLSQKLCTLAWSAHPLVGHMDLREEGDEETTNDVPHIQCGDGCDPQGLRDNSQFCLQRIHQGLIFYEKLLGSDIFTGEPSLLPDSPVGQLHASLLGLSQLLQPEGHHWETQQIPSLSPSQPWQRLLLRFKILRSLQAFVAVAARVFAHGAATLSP
T1 sequence (Q5VWK5 whole entry): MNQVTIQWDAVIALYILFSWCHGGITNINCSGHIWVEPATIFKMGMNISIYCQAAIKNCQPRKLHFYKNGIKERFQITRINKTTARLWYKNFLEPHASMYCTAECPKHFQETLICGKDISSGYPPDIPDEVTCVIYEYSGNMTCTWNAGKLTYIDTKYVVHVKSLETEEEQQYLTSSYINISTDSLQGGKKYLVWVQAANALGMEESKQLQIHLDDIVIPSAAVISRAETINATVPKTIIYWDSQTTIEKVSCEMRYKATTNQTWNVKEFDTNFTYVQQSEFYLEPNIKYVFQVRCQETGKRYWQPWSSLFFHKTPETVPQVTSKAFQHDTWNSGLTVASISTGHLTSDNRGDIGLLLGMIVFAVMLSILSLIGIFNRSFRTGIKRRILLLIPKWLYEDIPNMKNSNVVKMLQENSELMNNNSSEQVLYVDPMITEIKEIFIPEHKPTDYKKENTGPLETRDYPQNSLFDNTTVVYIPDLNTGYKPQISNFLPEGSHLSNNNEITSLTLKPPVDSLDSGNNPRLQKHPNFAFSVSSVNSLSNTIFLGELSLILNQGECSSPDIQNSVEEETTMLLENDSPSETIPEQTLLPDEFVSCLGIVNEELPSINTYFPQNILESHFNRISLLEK
Kind of assay: ELISA assay for specific human IL-23R inhibitors. As for the experimental part: (§1) A 384-well plate was coated with 50 µl/well of human IL-23 at a final concentration of […] and incubated overnight at 4°C. The wells were washed 3 times with […] wash buffer and blocked with […] blocking buffer for 60 minutes at room temperature and washed again. 20 µl of serially diluted test peptides was added to each well and subsequently 20 µl of recombinant human IL-23R-Fc chimera at final concentration of […]. The plate was incubated for 60 minutes at room temperature. After the wells were washed, bound IL-23R-Fc was detected with goat anti-hu- IgG 1 -HRP antibody. Signals were visualized with QuantaBlu Fluorogenic Peroxidase Substrate.
(In an ELISA, binding on a coated surface is turned into a signal by an enzyme label.)

Assay [2] has as its target Interleukin-23 subunit alpha/receptor (UniProt Q5VWK5). Kind of assay: ELISA assay for specific human IL-23R inhibitors. As for the experimental part:
as §1

In the case of `COc1ccc(C[C@@H]2NC(=O)[C@H](CCCNC(=N)N)NC(=O)[C@H](CCC(N)=O)NC(=O)[C@H](Cc3c[nH]c4ccccc34)NC(=O)C([C@@H](C)O)NC(=O)[C@H](CC(N)=O)NC(=O)[C@H](NC(C)=O)CCCCNC(=O)C[C@H](C(=O)N[C@@H](CC(N)=O)C(=O)N[C@@H](CC(N)=O)C(=O)O)NC(=O)C(C)(C)NC(=O)[C@H](Cc3ccc4ccccc4c3)NC2=O)cc1` (some centres undefined) [WO2025051920, Example 3], the IC50 in assay [1] stood at 1.55 nM.
In assay [1], `COc1ccc(C[C@@H]2NC(=O)[C@H](CCCNC(=N)N)NC(=O)[C@H](CCC(N)=O)NC(=O)[C@H](Cc3c[nH]c4ccccc34)NC(=O)C([C@@H](C)O)NC(=O)[C@H](CC(N)=O)NC(=O)[C@H](NC(C)=O)CCCCNC(=O)CC[C@H](C(=O)N[C@@H](CC(N)=O)C(=O)N[C@@H](CC(N)=O)C(=O)O)NC(=O)C(C)(C)NC(=O)[C@H](Cc3ccc4ccccc4c3)NC2=O)cc1` (some centres undefined) [WO2025051920, Example 5] yielded an IC50 of 1.95 nM.
Still for that read-out and setting: the value for `COc1ccc(C[C@@H]2NC(=O)[C@H](CCCNC(=N)N)NC(=O)[C@H](CCC(N)=O)NC(=O)[C@H](Cc3c[nH]c4ccccc34)NC(=O)C([C@@H](C)O)NC(=O)[C@H](CC(N)=O)NC(=O)C(NC(C)=O)CCCCNC(=O)C[C@H](C(=O)N[C@@H](CC(N)=O)C(=O)N[C@@H](CC(N)=O)C(=O)O)NC(=O)C(C)(C)NC(=O)[C@H](Cc3cccc4ccccc34)NC2=O)cc1` (some centres undefined) [WO2025051920, Example 9] was 3.55 nM; that for `COc1ccc(C[C@@H]2NC(=O)[C@H](CCCNC(=N)N)NC(=O)[C@H](CCC(N)=O)NC(=O)[C@H](Cc3c[nH]c4ccccc34)NC(=O)C([C@@H](C)O)NC(=O)[C@H](CC(N)=O)NC(=O)C(NC(C)=O)CCCCNC(=O)C[C@H](C(=O)N[C@@H](CC(N)=O)C(=O)N[C@@H](CC(N)=O)C(=O)O)NC(=O)C(C)(C)NC(=O)[C@H](Cc3ccc4ccccc4c3)NC2=O)cc1` (some centres undefined) [WO2025051920, Example 15] was 1.04 nM.
The molecule `COc1ccc(C[C@@H]2NC(=O)[C@H](CCCNC(=N)N)NC(=O)[C@H](CCC(N)=O)NC(=O)[C@H](Cc3cn(C)c4ccccc34)NC(=O)[C@H]([C@@H](C)O)NC(=O)[C@H](CC(N)=O)NC(=O)[C@H](NC(C)=O)CCCCNC(=O)C[C@@H](C(=O)N[C@@H](CC(N)=O)C(=O)N[C@@H](CC(N)=O)C(=O)O)NC(=O)[C@H](CC(C)C)NC(=O)[C@H](Cc3cccc4ccccc34)NC2=O)cc1` [WO2025051920, Example 23] yielded an IC50 in assay [1] of 12 nM.
The same measure, in the same setting: as for `COc1ccc(C[C@@H]2NC(=O)[C@H](CCCNC(=N)N)NC(=O)[C@H](CCC(N)=O)NC(=O)[C@H](Cc3cn(C)c4ccccc34)NC(=O)[C@H]([C@@H](C)O)NC(=O)[C@H](CC(N)=O)NC(=O)[C@H](NC(C)=O)CCCCNC(=O)C[C@@H](C(=O)N[C@@H](CC(N)=O)C(=O)N[C@@H](CC(N)=O)C(=O)O)NC(=O)[C@H](CC(C)C)NC(=O)[C@H](Cc3ccc4ccccc4c3)NC2=O)cc1` [WO2025051920, Example 24], the figure is 1.21 nM; as for `COc1ccc(C[C@@H]2NC(=O)[C@H](C)NC(=O)[C@H](CCC(N)=O)NC(=O)[C@H](Cc3c[nH]c4ccccc34)NC(=O)C([C@@H](C)O)NC(=O)[C@H](CC(N)=O)NC(=O)C(N)CCCCNC(=O)C[C@H](C(=O)N[C@@H](CC(N)=O)C(=O)N[C@@H](CC(N)=O)C(=O)O)NC(=O)C(C)(C)NC(=O)[C@H](Cc3ccc4ccccc4c3)NC2=O)cc1` (some centres undefined) [WO2025051920, Example 44], 4.66 nM.
For `COc1ccc(C[C@@H]2NC(=O)[C@H](C)NC(=O)[C@H](CCC(N)=O)NC(=O)[C@H](Cc3c[nH]c4ccccc34)NC(=O)[C@H]([C@@H](C)O)NC(=O)[C@H](CC(N)=O)NC(=O)[C@H](NC(C)=O)CCCCNC(=O)C[C@@H](C(=O)N[C@@H](C)C(=O)N[C@@H](C)C(=O)O)NC(=O)C(C)(C)NC(=O)[C@H](Cc3ccc4ccccc4c3)NC2=O)cc1` [WO2025051920, Example 50], in assay [2], half-maximal inhibition (IC50) required 8.29 nM.
With `COc1ccc(C[C@@H]2NC(=O)[C@H](C)NC(=O)[C@H](CCC(N)=O)NC(=O)[C@H](Cc3c[nH]c4ccccc34)NC(=O)[C@H]([C@@H](C)O)NC(=O)[C@H](CC(N)=O)NC(=O)[C@H](NC(C)=O)CCCCNC(=O)C[C@@H](C(=O)N[C@@H](CC(N)=O)C(=O)N[C@@H](CC(N)=O)C(N)=O)NC(=O)C3(CCOCC3)NC(=O)[C@H](Cc3ccc4ccccc4c3)NC2=O)cc1` [WO2025051920, Example 51] (Ac-[dK]NTWQAY(Me)[2Nal][Thp]DNN-NH2; lactam 1-10), the IC50 in assay [2] is 0.78 nM.
